# Experiments:
# [1] = biological target: T1, HMG-CoA reductase (rat liver microsomes) (Rattus norvegicus, UniProt P51639); assay: Test of activity of inhibiting HMG-CoA reductase (rate of decline of OD340); assay type: biochemical; conditions: final concentration in system 80 μg/mL
# T1 construct: taking out liver of male rat, washing with KESD buffer solution; from tissue; host or cells: liver of male rat (microsomal fraction, glycerol/37 °C treatment, 35-50% ammonium sulfate fraction)
# T1 sequence (P51639 1-887): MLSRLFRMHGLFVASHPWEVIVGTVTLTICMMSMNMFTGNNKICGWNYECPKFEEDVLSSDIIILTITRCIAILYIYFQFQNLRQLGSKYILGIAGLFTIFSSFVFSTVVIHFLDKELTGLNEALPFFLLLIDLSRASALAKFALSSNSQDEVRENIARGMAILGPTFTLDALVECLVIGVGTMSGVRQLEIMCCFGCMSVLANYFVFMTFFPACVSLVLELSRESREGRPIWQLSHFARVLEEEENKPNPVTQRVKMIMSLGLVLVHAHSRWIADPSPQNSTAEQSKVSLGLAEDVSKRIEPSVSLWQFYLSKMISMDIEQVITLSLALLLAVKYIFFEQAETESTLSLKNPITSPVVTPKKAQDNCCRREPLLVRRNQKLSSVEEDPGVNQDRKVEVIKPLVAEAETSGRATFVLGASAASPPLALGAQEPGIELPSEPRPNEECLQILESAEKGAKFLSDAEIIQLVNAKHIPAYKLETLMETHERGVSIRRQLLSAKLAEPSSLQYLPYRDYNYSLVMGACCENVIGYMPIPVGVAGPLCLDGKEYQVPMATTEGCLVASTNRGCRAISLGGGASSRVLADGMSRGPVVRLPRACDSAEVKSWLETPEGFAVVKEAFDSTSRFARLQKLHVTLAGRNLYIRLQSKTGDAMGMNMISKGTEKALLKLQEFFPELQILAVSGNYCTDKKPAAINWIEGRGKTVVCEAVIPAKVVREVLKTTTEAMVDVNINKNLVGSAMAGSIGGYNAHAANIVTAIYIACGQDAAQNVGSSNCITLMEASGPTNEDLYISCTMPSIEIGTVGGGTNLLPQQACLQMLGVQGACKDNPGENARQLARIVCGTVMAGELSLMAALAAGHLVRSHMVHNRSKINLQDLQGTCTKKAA
# Experimental: Rat liver microsomes (HMG-CoA reductase), could be commercially available or prepared by the following preparation method: taking out liver of male rat, washing with KESD buffer solution, centrifuging under 1200 g for 15 minutes, collecting supernatant, then centrifuging under 105,000 g twice, 90 minutes for each time, and collecting centrifugation deposit. The centrifugation deposit was added with 8.3% of glycerol, heated with 37° C. bath for 1 hour. The crude product of rat liver microsomes was purified with saturated ammonium sulfate, and 35-50% of purified fraction was collected. The purified fraction obtained could be stored in −80° C. refrigerator.
# Compound of Formula II was dissolved in 75% ethanol solution, with initial concentration of 8.0 mg/mL, and diluted in gradient manner, to reach 4.0 mg/mL, 2.0 mg/mL, 1.0 mg/mL; lovastatin was used as positive control, dissolved with 75% ethanol solution to reach concentration of 2.0 mg/mL; in the test system, total volume was 250 μL, concentrations of ingredients were separately: potassium chloride 200 mM, potassium dihydrogen phosphate 160 mM, ethylenediamine tetraacetic acid 4 mM, dithiothreitol 10 mM, […] and 3-hydroxy-3-methylglutary coenzyme A as two substrates separately had concentrations of: 200 μM and 50 μM, pH6.8, 30 μL of enzyme was added, 4 test groups were separately added with 10 μL of new compound solutions with different concentrations, the positive control group was added with 10 μL of lovastatin solution, the blank control group was added with 10 μL of 75% ethanol solution, and dynamitic changes of OD340 were detected with Versamax ELISA at 37° C. condition. The rate of decline of OD340 (expressed in slope value) as detected within 5 minutes was used to evaluate the activity of HMG-CoA reductase, and then to evaluate the activity of enzyme inhibitor and the results were shown in Table 2.
# [2] = biological target: T2, Porcine pancreatic lipase (Sus scrofa, UniProt P00591); assay: Test of activity of inhibiting lipase (copper oleate colorimetry, olive oil substrate); assay type: biochemical, pig; conditions: final concentration of inhibitor in the system 1.85 μg/mL
# T2 construct: purchased Sigma
# T2 sequence (P00591 1-450): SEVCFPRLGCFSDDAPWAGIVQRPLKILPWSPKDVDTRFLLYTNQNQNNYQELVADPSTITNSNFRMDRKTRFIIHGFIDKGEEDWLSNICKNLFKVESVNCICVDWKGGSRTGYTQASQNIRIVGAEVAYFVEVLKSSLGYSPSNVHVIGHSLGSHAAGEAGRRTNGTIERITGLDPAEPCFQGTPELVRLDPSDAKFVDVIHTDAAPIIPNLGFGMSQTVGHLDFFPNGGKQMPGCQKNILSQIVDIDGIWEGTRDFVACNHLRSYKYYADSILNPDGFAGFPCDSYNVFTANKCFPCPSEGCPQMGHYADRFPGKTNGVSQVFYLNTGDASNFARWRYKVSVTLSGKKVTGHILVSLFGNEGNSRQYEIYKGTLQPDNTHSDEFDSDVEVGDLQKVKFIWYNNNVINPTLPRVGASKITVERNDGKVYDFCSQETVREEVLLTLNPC
# Experimental: 2.1 Preparation of light absorbance working curve for fatty acid: a series of oleic acid-toluene solutions with different concentrations (0-3.5 mmol/L, separately being 0, 0.225, 0.45, 0.675, 0.9, 1.125, 1.35, 1.8, 2.25, 2.7, and 3.5 mmol/L), 4 mL of each was taken and placed in conical flask, added with 1 mL of color developing agent, stirred with magnetic force for 3 minutes, oleic acid molecules and copper ions formed a green complex compound, after centrifugation, organic phase of upper layer was taken and measured at 714 nm to determine light absorbance.
# 2.2 Enzyme solution was 0.5 mg/mL pancreatic lipase solution; buffer solution was 0.07M NaH2PO4—K2HPO4 phosphate buffer solution (pH 7.0); color developing agent was 5% copper acetate solution, which was regulated with pyridine to have pH 6.1.
# 3 mL of 0.07M phosphate buffer solution and 1 mL of olive oil were pre-heated at a constant temperature of 37° C. for 5 minutes in water bath under agitation with a magnetic stirrer, added with 1.3 mL of enzyme solution (negative control was that without enzyme inhibitor; positive control is that added with 100 μL of 0.1 mg/mL orlistat solution; […]), stirred with magnetic force for 10 minutes, immediately added with 8 mL of toluene, stirred continuously for 2 minutes, the reaction was terminated, the generated oleic acid was extracted. The solutions were transferred to centrifuge tube, centrifuged under 4000 rpm for 10 minutes, and the organic phase and water phase were layered and clarified. 4 mL of the upper layer organic phase was taken and placed in a small conical flask, added with 1 mL of color developing agent, stirred with magnetic stirrer for 3 minutes, the generated oleic acid reacted with copper ions to form green complex compound. After centrifugation under 4000 rpm for 10 minutes, the upper layer of toluene solution containing copper oleate was taken, and measured with a spectrophotometer at 714 nm to determine its light absorbance. A blank solution without lipase was prepared as control by the same method, and concentration of fatty acid could be determined by referring to light absorbance working curve of oleic acid.
# Enzyme activity unit of lipase was defined as follows: an enzyme amount to release 1 μmol fatty acid under certain condition was defined as 1 unit of lipase activity (U).
# The following formula was used to calculate enzyme activity: X=(cV)/(tV′)
# wherein: X represents enzyme activity of lipase, U/mL; c represents concentration of fatty acid, […]; V represents volume of fatty acid solution, mL; V′ represents amount of enzyme solution, mL; t represents action time, minute. Inhibition rate=[(enzyme activity of lipase−enzyme activity of lipase after inhibition)/enzyme activity of lipase]×100%
SMILES,Inhibition rate [1],Slope (rate of decline of OD340) ([1]; blank control slope 16.0),"Absorbance ([2]; 714 nm, blank control 0.6680)",Inhibition rate [2],Enzyme activity ([2]; blank control 1.69),Concentration of generated oleic acid ([2]; blank control 2.75)
"CC[C@H](C)C(=O)O[C@H]1C[C@@H](C)C=C2C=C[C@H](C)[C@H](CC[C@@H]3C[C@@H](O)CC(=O)O3)[C@H]21 [Lovastatin, lovastatin, reference compound]",54.4%,7.3,,,,
"CCCCCCCCCCC[C@@H](C[C@@H]1OC(=O)[C@H]1CCCCCC)OC(=O)[C@H](CC(C)C)NC=O [Orlistat, orlistat, reference compound]",,,0.2042,69.84%,0.50 U/mL,0.81 mM
